Laboratory results: PubChem BioAssay (NCI)
“And” between values parts separate entries of the source, which are not always exact repeats. Equal entries are not always repeated.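 Five compound concentrations were applied to cells in 96-well plates for 48 hours; endpoints were derived by simple linear interpolation of the resulting dose-response curve. At the GI50, growth is halved. TGI marks complete inhibition of growth.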

Assays:
Experiment in all cases: NCI tumour cell line growth inhibition, 48 h
MDA-N = test system: MDA-N
RXF-631 renal = test system: RXF-631 renal
XF 498 CNS = test system: XF 498 CNS
DMS 114 small cell lung = test system: DMS 114 small cell lung
P388 leukemia = test system: P388 leukemia
P388/ADR leukemia = test system: P388/ADR leukemia
DMS 273 small cell lung = test system: DMS 273 small cell lung
DLD-1 colon = test system: DLD-1 colon
HOP-18 NSCLC = test system: HOP-18 NSCLC
M19-MEL melanoma = test system: M19-MEL melanoma
SNB-78 CNS = test system: SNB-78 CNS

Structure (SMILES)	TGI (MDA-N)	TGI (RXF-631 renal)	TGI (XF 498 CNS)	TGI (DMS 114 small cell lung)	TGI (DMS 273 small cell lung)	TGI (DLD-1 colon)	TGI (HOP-18 NSCLC)	TGI (M19-MEL melanoma)	TGI (SNB-78 CNS)	also measured
O=NN(CCCl)C(=O)NC1CCCCC1	134 µM	132 µM	36.4 µM and 128 µM and 114 µM	38.8 µM and 112 µM and 183 µM	65.1 µM and 124 µM and 170 µM	39.2 µM and 98.6 µM and 86.2 µM	56.2 µM and 152 µM	81.5 µM and 123 µM and 163 µM	–	GI50 (RXF-631 renal): 25 µM; GI50 (XF 498 CNS): 18 µM and 82 µM; GI50 (DMS 114 small cell lung): 20.7 µM and 70.3 µM; TGI (P388 leukemia): 34.4 µM; TGI (P388/ADR leukemia): 47.4 µM; GI50 (DMS 273 small cell lung): 28.2 µM and 76.7 µM; GI50 (DLD-1 colon): 18.4 µM and 42.2 µM; GI50 (HOP-18 NSCLC): 84.4 µM; GI50 (M19-MEL melanoma): 27.4 µM and 60.2 µM
[Cl-].[Gd+3].[O-]/N=C(\c1ccccc1)c1ccccn1.[O-]/N=C(\c1ccccc1)c1ccccn1.[O-]/N=C(\c1ccccc1)c1ccccn1	–	–	–	> 100 µM	> 100 µM	> 100 µM	–	> 100 µM	–	GI50 (DMS 114 small cell lung): 36.8 µM; GI50 (DMS 273 small cell lung): 43.8 µM; GI50 (DLD-1 colon): 39.9 µM; GI50 (M19-MEL melanoma): 52.7 µM
COC(=O)CC1CC2(C(=O)OC)c3[nH]c4ccccc4c3CCN2C1=O (stereo not drawn)	–	31.3 µM	> 100 µM	> 100 µM	> 100 µM	> 100 µM	> 100 µM	> 100 µM	> 100 µM	–
CC1OC(OC2C(O[C@H]3CC[C@@]4(C)C(=CC[C@H]5[C@@H]6C[C@@H]7O[C@]8(CC[C@@H](C)CO8)[C@@H](C)[C@@H]7[C@@]6(C)CC[C@@H]54)C3)OC(CO)C(OC3OC(CO)C(O)C3O)C2O)C(O)C(O)C1O (stereo partly drawn)	1.46 µM and 2.34 µM	–	–	–	–	–	–	–	–	GI50 (MDA-N): 1.13 µM
C=C(Cl)[C@@](Cl)(CBr)CC[C@@H](Br)C(C)(C)Cl	–	–	–	–	–	–	–	–	–	GI50 (MDA-N): 1.69 µM
CC1=CCN(c2ccccn2)OC1c1ccccc1 (stereo not drawn)	–	> 100 µM	> 100 µM	> 100 µM	> 100 µM	> 100 µM	> 100 µM	> 100 µM	> 100 µM	–
Nc1nc(=S)[nH]c(C(=O)Nc2nccs2)c1-c1ccccc1	–	–	> 100 µM	> 100 µM	> 100 µM	> 100 µM	> 100 µM	> 100 µM	> 100 µM	–
O=C(Oc1ccc2c(c1)CN(Cc1ccccc1)CO2)c1ccccc1	30.7 µM	–	–	–	–	–	–	–	–	–
O=C1CNN=C(Cn2nc(-c3ccccc3)c3ccccc3c2=O)N1	–	–	–	> 100 µM	> 100 µM	> 100 µM	> 100 µM	> 100 µM	> 100 µM	–
Nc1ccc(C(=O)/C=C/c2ccccc2O)cc1	–	> 100 µM	> 100 µM	–	–	> 100 µM	–	> 100 µM	> 100 µM	–
COCC1N=C(c2cc(OC)c(OC)c(OC)c2-c2cc3c(cc2[C@H](C)O)OCO3)O[C@H]1c1ccccc1 (stereo partly drawn)	–	> 100 µM	–	–	> 100 µM	> 100 µM	> 100 µM	> 100 µM	> 100 µM	–
N#CCCN(CCC#N)c1ccc(C=Nc2ccc(F)cc2)cc1	> 100 µM	> 100 µM	> 100 µM	> 100 µM	> 100 µM	> 100 µM	> 100 µM	> 44.5 µM	> 100 µM	–
O=c1cccccc1[O-].O=c1cccccc1[O-].O=c1cccccc1[O-].[Sm+3]	–	–	–	–	> 100 µM	> 100 µM	–	–	> 100 µM	GI50 (DMS 273 small cell lung): 11.3 µM; GI50 (DLD-1 colon): 18 µM; GI50 (SNB-78 CNS): 30.6 µM
CC(=O)OCC1OC(n2c(=S)n(-c3ccccc3)c(=O)c3cc(Br)cc(Br)c32)C(OC(C)=O)C(OC(C)=O)C1OC(C)=O (stereo not drawn)	–	–	69.7 µM and > 100 µM	> 100 µM	> 100 µM	> 100 µM	–	> 100 µM	> 100 µM	GI50 (XF 498 CNS): 17.2 µM and 49.1 µM
Cc1ccc(S(=O)(=O)N2CCC(C(=O)O)(c3ccccc3)CC2)cc1	> 100 µM	–	–	–	–	–	–	–	–	–
COc1cc(CCc2ccc(OC(C)=O)cc2)cc(OC)c1OC	–	–	–	> 100 µM	> 100 µM	> 100 µM	> 100 µM	> 100 µM	> 100 µM	–
